Legend:
Type in all cases: in vivo
[1] = tested on: sedge, umbrella (small-flower umbrella sedge, Cyperus difformis); test: Test B flooded paddy test, visual plant response rating 0-100; conditions: 250 g ai/ha, Flood, applied to paddy water, evaluated after 13 days
Summary of the method: (§1)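 Greenhouse, 13 d. Seedlings at 2-leaf stage, pots flooded to 3 cm, compound delivered into floodwater, water level held constant. Evaluated visually relative to controls.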

rice (Oryza sativa) = test: as above; conditions: 250 g ai/ha, Flood, applied to paddy water, evaluated after 13 days
Summary of the method: as §1

[2] = tested on: barnyardgrass (Echinochloa crusgalli); test: as above; conditions: 250 g ai/ha, Flood, applied to paddy water, evaluated after 13 days
Summary of the method: as §1

[3] = tested on: ducksalad (Heteranthera limosa); test: as above; conditions: 250 g ai/ha, Flood, applied to paddy water, evaluated after 13 days
Summary of the method: as §1

[4] = tested on: wheat (Triticum aestivum); test: Test A preemergence soil spray, visual injury rating 0-100; conditions: 10 days, 0 = no effect, 100 = complete control
Summary of the method: (§2)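 Plants were grown in a loam soil-sand blend and treated with test chemical in a non-phytotoxic solvent mixture containing surfactant, either sprayed on soil preemergence or applied postemergence to 2-10 cm plants. After 10 days in a greenhouse, injury was scored visually against untreated controls, 0 meaning no effect and 100 complete control.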

[5] = tested on: palmer (palmer amaranth, palmer pigweed, Amaranthus palmeri); test: as above; conditions: 10 days, 0 = no effect, 100 = complete control
Summary of the method: as §2

[6] = tested on: ryegrass, Italian (italian ryegrass, Lolium multiflorum); test: as above; conditions: 10 days, 0 = no effect, 100 = complete control
Summary of the method: as §2

[7] = tested on: barnyardgrass (Echinochloa crus-galli); test: as above; conditions: 10 days, 0 = no effect, 100 = complete control
Summary of the method: as §2

[8] = tested on: green foxtail (Setaria viridis); test: as above; conditions: 10 days, 0 = no effect, 100 = complete control
Summary of the method: as §2

[9] = tested on: oat, wild (wild oat, Avena fatua); test: as above; conditions: 10 days, 0 = no effect, 100 = complete control
Summary of the method: as §2

[10] = tested on: ragweed (common ragweed, Ambrosia artemisiifolia); test: as above; conditions: 10 days, 0 = no effect, 100 = complete control
Summary of the method: as §2

soybean (Glycine max) [11] = test: as above; conditions: 10 days, 0 = no effect, 100 = complete control
Summary of the method: as §2

kochia (Bassia scoparia) [12] = test: as above; conditions: 10 days, 0 = no effect, 100 = complete control
Summary of the method: as §2

corn (Zea mays) [13] = test: as above; conditions: 10 days, 0 = no effect, 100 = complete control
Summary of the method: as §2

[14] = tested on: blackgrass (Alopecurus myosuroides); test: as above; conditions: 10 days, 0 = no effect, 100 = complete control
Summary of the method: as §2

[15] = tested on: horseweed (Erigeron canadensis); test: Test A postemergence application, visual injury rating 0-100; conditions: 10 days
Summary of the method: as §2

[16] = tested on: wheat (Triticum aestivum); test: as above; conditions: 10 days
Summary of the method: as §2

[17] = tested on: palmer (palmer amaranth, palmer pigweed, Amaranthus palmeri); test: as above; conditions: 10 days
Summary of the method: as §2

[18] = tested on: ryegrass, Italian (italian ryegrass, Lolium multiflorum); test: as above; conditions: 10 days
Summary of the method: as §2

[19] = tested on: barnyardgrass (Echinochloa crus-galli); test: as above; conditions: 10 days
Summary of the method: as §2

[20] = tested on: green foxtail (Setaria viridis); test: as above; conditions: 10 days
Summary of the method: as §2

[21] = tested on: galium (catchweed bedstraw, Galium aparine); test: as above; conditions: 10 days
Summary of the method: as §2

[22] = tested on: oat, wild (wild oat, Avena fatua); test: as above; conditions: 10 days
Summary of the method: as §2

[23] = tested on: ragweed (common ragweed, Ambrosia artemisiifolia); test: as above; conditions: 10 days
Summary of the method: as §2

soybean (Glycine max) [24] = test: as above; conditions: 10 days
Summary of the method: as §2

kochia (Bassia scoparia) [25] = test: as above; conditions: 10 days
Summary of the method: as §2

corn (Zea mays) [26] = test: as above; conditions: 10 days
Summary of the method: as §2

[27] = tested on: blackgrass (Alopecurus myosuroides); test: as above; conditions: 10 days
Summary of the method: as §2

[28] = 31 g ai/ha, postemergence, 0 = no effect, 100 = complete control
[29] = Postemergence, 125 g ai/ha, 0 is no effect, 100 is complete control

Structure (SMILES): CC(C)OC(=O)C1CC(NC(=O)C2(C)CN(c3cc(F)cc(F)c3)C(=O)O2)CO1 (stereo not shown) [Compound 32]
- Plant response rating, Sedge, Umbrella (0 to 100 scale, 0 is no effect and 100 is complete control) [1]: 0
- Plant response rating, Rice (0 to 100 scale, 0 is no effect and 100 is complete control) (rice (Oryza sativa)): 0
- Plant response rating, Barnyardgrass (0 to 100 scale, 0 is no effect and 100 is complete control) [2]: 0
- Plant response rating, Ducksalad (0 to 100 scale, 0 is no effect and 100 is complete control) [3]: 0
- Wheat plant response rating (0-100) ([4]; 31 g ai/ha): 0
- Wheat plant response rating (0 to 100 scale) ([4]; 125 g ai/ha): 70
- Amaranth, Palmer plant response rating (0-100) ([5]; 31 g ai/ha): 0
- Amaranth, Palmer plant response rating (0 to 100 scale) ([5]; 125 g ai/ha): 0
- Ryegrass, Italian plant response rating (0-100) ([6]; 31 g ai/ha): 0
- Ryegrass, Italian plant response rating (0 to 100 scale) ([6]; 125 g ai/ha): 80
- Barnyardgrass plant response rating (0-100) ([7]; 31 g ai/ha): 0
- Barnyardgrass plant response rating (0 to 100 scale) ([7]; 125 g ai/ha): 0
- Foxtail, Green plant response rating (0-100) ([8]; 31 g ai/ha): 0
- Foxtail, Green plant response rating (0 to 100 scale) ([8]; 125 g ai/ha): 0
- Oat, Wild plant response rating (0-100) ([9]; 31 g ai/ha): 0
- Oat, Wild plant response rating (0 to 100 scale) ([9]; 125 g ai/ha): 40
- Ragweed plant response rating (0-100) ([10]; 31 g ai/ha): 0
- Ragweed plant response rating (0 to 100 scale) ([10]; 125 g ai/ha): 0
- Soybean plant response rating (0-100) (soybean (Glycine max) [11]; 31 g ai/ha): 20
- Soybean plant response rating (0 to 100 scale) (soybean (Glycine max) [11]; 125 g ai/ha): 0
- Kochia plant response rating (0-100) (kochia (Bassia scoparia) [12]; 31 g ai/ha): 0
- Kochia plant response rating (0 to 100 scale) (kochia (Bassia scoparia) [12]; 125 g ai/ha): 20
- Corn plant response rating (0-100) (corn (Zea mays) [13]; 31 g ai/ha): 0
- Corn plant response rating (0 to 100 scale) (corn (Zea mays) [13]; 125 g ai/ha): 10
- Blackgrass plant response rating (0-100) ([14]; 31 g ai/ha): 0
- Blackgrass plant response rating (0 to 100 scale) ([14]; 125 g ai/ha): 0
- Horseweed plant response rating (0-100) [15, 28]: 0
- Horseweed plant response rating (0 to 100 scale) [15, 29]: 0
- Wheat plant response rating (0-100) [16, 28]: 80
- Wheat plant response rating (0 to 100 scale) [16, 29]: 90
- Amaranth, Palmer plant response rating (0-100) [17, 28]: 0
- Amaranth, Palmer / Pigweed, Palmer plant response rating (0 to 100 scale) [17, 29]: 30
- Ryegrass, Italian plant response rating (0-100) [18, 28]: 20
- Ryegrass, Italian plant response rating (0 to 100 scale) [18, 29]: 80
- Barnyardgrass plant response rating (0-100) [19, 28]: 0
- Barnyardgrass plant response rating (0 to 100 scale) [19, 29]: 90
- Foxtail, Green plant response rating (0-100) [20, 28]: 0
- Foxtail, Green plant response rating (0 to 100 scale) [20, 29]: 40
- Galium plant response rating (0-100) [21, 28]: 50
- Galium plant response rating (0 to 100 scale) [21, 29]: 80
- Oat, Wild plant response rating (0-100) [22, 28]: 80
- Oat, Wild plant response rating (0 to 100 scale) [22, 29]: 90
- Ragweed plant response rating (0-100) [23, 28]: 30
- Ragweed plant response rating (0 to 100 scale) [23, 29]: 50
- Soybean plant response rating (0-100) (soybean (Glycine max) [24]; [28]): 20
- Soybean plant response rating (0 to 100 scale) (soybean (Glycine max) [24]; [29]): 60
- Kochia plant response rating (0-100) (kochia (Bassia scoparia) [25]; [28]): 40
- Kochia plant response rating (0 to 100 scale) (kochia (Bassia scoparia) [25]; [29]): 50
- Corn plant response rating (0-100) (corn (Zea mays) [26]; [28]): 0
- Corn plant response rating (0 to 100 scale) (corn (Zea mays) [26]; [29]): 50
- Blackgrass plant response rating (0-100) [27, 28]: 80
- Blackgrass plant response rating (0 to 100 scale) [27, 29]: 100

— US20260285850A1, “SUBSTITUTED OXAZOLIDINONES AND IMIDAZOLINONES AS HERBICIDES” (FMC CORPORATION, priority 2023, published 2026)
